Measurements taken from PubChem BioAssay (NCI).
Several values for one entry are separate records, joined by “and”; a condition that tells them apart may be missing. Equal entries are not always repeated.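 These data come from cells grown in 96-well plates and exposed to compound for 48 hours at five concentrations. At the GI50, growth is halved. TGI denotes the concentration required for complete inhibition of growth.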

Tests used:
Experiment in all cases: DTP human tumour cell line panel, 48 h
[1] = test system: COLO 205 colon
[2] = test system: HOP-62 NSCLC
[3] = test system: SF-268 CNS
[4] = test system: UACC-62 melanoma
[5] = test system: SK-MEL-2 melanoma
[6] = test system: SN12C renal
[7] = test system: A549 NSCLC
[8] = test system: OVCAR-4 ovarian
[9] = test system: NCI-H226 lung
[10] = test system: LOX IMVI melanoma

| Compound | GI50 [1] | TGI [1] | GI50 [2] | TGI [2] | GI50 [3] | TGI [3] | GI50 [4] | TGI [4] | GI50 [5] | TGI [5] | GI50 [6] | TGI [6] | GI50 [7] | TGI [7] | GI50 [8] | TGI [8] | GI50 [9] | TGI [9] | GI50 [10] | TGI [10] |
| --- | --- | --- | --- | --- | --- | --- | --- | --- | --- | --- | --- | --- | --- | --- | --- | --- | --- | --- | --- | --- |
| C[C@@H]1CC[C@H]2[C@@H](C)C(O)O[C@@H]3O[C@]4(C)CC[C@@H]1[C@]32OO4 (stereo not given in full) | 718 nM | 3 µM | 2990 nM | 18.7 µM | 1.4 µM | > 62.7 µM | 560 nM | > 76.9 µM | 2 µM | 15.2 µM | 1.37 µM | > 72.3 µM | 1740 nM | 13.5 µM | 2.43 µM | > 56.7 µM | 1560 nM | 40.9 µM | 309 nM | 0.973 µM |
| Cc1c2cnccc2c(C)c2c1c1cc(O)ccc1n2C(C)C | 2360 nM | 6.02 µM | 1600 nM | 4.74 µM | 1.18 µM | 3.62 µM | 1370 nM | 4.28 µM | 0.797 µM | 2.58 µM | 0.647 µM | 6.06 µM | 744 nM | 8.17 µM | 1.31 µM | 7.38 µM | 2820 nM | 11.6 µM | 470 nM | 1.9 µM |
| NCCOc1ccc(/C(=C(/Cl)c2ccccc2)c2ccccc2)cc1 |  | 3.59 µM |  | 32.7 µM |  | 29.8 µM |  | 25.3 µM |  | 29.1 µM |  | 24 µM |  | 31.5 µM |  | 28.7 µM |  | 36.7 µM |  | 16.6 µM |
| CCn1cnc(C[C@H](NC(=O)[C@H](CCCCNC(=O)Nc2cc(C(F)(F)F)cc(C(F)(F)F)c2)NC(=O)Nc2cc(C(F)(F)F)cc(C(F)(F)F)c2)C(=O)OC)c1 | > 10000 nM | > 10 µM | 9320 nM | > 10 µM | 6.04 µM | > 10 µM | > 10000 nM | > 10 µM | > 10 µM | > 10 µM | 5.69 µM | > 10 µM | 3970 nM | > 10 µM | 3.51 µM | > 10 µM | > 10000 nM | > 10 µM | 3560 nM | > 10 µM |
| NC1=NN(c2ccccc2)C(=O)C1C(=O)C(=O)Nc1ccc(Cl)cc1 (stereo not given) |  | > 100 µM |  | > 100 µM |  | > 100 µM |  | > 100 µM |  | > 100 µM |  | > 100 µM |  | > 100 µM |  | > 100 µM |  | > 100 µM |  | > 100 µM |
| N#CCCN(CCC#N)c1ccc(/C=C(/NC(=O)c2cc([N+](=O)[O-])ccc2Cl)C(=O)N=[N+]=[N-])cc1 |  | > 100 µM |  | > 100 µM |  | > 100 µM |  | > 100 µM |  | > 100 µM |  | > 100 µM |  | > 100 µM |  | > 100 µM |  | > 100 µM |  | > 100 µM |
| O/N=C1/CCC/C1=C\c1ccccc1 |  | > 100 µM |  | > 100 µM |  | > 100 µM |  | > 100 µM |  | > 100 µM |  | > 100 µM |  | > 100 µM |  | > 100 µM |  | > 100 µM |  | > 100 µM |
| CCCCCCCCCCC(=O)CCCCCCC(=O)O |  | 29.8 µM |  | 68.8 µM |  | > 100 µM |  | 35.5 µM |  | > 100 µM |  | 75.2 µM |  | 32.2 µM |  | > 100 µM |  | > 100 µM |  | 31.4 µM |
| CN(C)c1ccc(/C=C/C(=O)c2ccc(Nc3nc(Nc4ccc(F)cc4)nc(Nc4ccc(F)cc4)n3)cc2)cc1 | 5160 nM | 24.8 µM | 17700 nM | 47.4 µM | 24.9 µM | > 100 µM | 27400 nM | > 100 µM | 14.2 µM | 52.5 µM | 43 µM | > 100 µM | 12800 nM | 34.2 µM | 15 µM | 53.4 µM | 23400 nM | 78.8 µM | 19000 nM | 50.7 µM |
| Cc1ccc2nc(NC(=O)C(=O)C(C(=O)c3ccc4ccccc4c3)C3OC(=O)c4ccccc43)sc2c1 (stereo not given) |  | 34.6 µM |  | 26.6 µM |  | 31.3 µM |  | 25 µM |  | 29.3 µM |  | 31.6 µM |  | 53.8 µM |  | > 100 µM |  | 5.43 µM |  | 27.7 µM |
| COc1ccc(-c2nn(-c3cccc(Cl)c3)cc2/C=C2\NC(=S)N(c3ccc(Cl)cc3)C2=O)cc1 | 5590 nM | 11 µM | 3910 nM | 7.83 µM | 7.41 µM | > 25 µM | 3290 nM | 7.64 µM | 4.15 µM | 9.61 µM | 5.48 µM | > 25 µM | 3350 nM | 9.73 µM | 3.54 µM | 7.45 µM | 4030 nM | 9.36 µM | 5970 nM | > 25 µM |
| Cc1nnc(C[C@@H]2C=C(c3ccc(Cl)cc3)c3ccccc3-n3c(C)nnc32)o1 | 296 nM | 24.1 µM | 318 nM | > 90.4 µM | 13.1 µM | 73.5 µM | 118 nM | 18.9 µM | 10.2 µM | 47.6 µM | 12 µM | > 100 µM | 2610 nM | > 82.2 µM | 1.29 µM | > 100 µM | 12600 nM | > 100 µM | 400 nM | 16 µM |
| Cc1cc(=O)oc2c(C3=NN(C=O)C(c4ccccc4)C3)c(O)ccc12 (stereo not given) |  | > 81.1 µM |  | 91.4 µM |  | > 100 µM |  | > 100 µM |  | > 100 µM |  | > 100 µM |  | > 32.8 µM |  | > 100 µM |  | > 100 µM |  | > 100 µM |
| CC(=O)N[C@H](C)[C@@H](O)[C@@H](C)[C@@H]1OC(=O)/C=C/C=C(C)\C=C\[C@]2(C)C[C@@H](NS(C)(=O)=O)C=C[C@@H]2/C=C(C)/C=C/[C@H]1C | 6.92 nM and 19.9 nM | > 43.5 µM | 10.3 nM and 20.5 nM | > 43.5 µM | 0.357 µM and 0.0531 µM | > 43.5 µM | 7.25 nM and 27.8 nM | > 43.5 µM | 3.88 µM and 24.1 µM | > 43.5 µM | 0.00723 µM and 0.0129 µM | > 43.5 µM | 15.9 nM and 4.35 nM | > 43.5 µM | 25.2 µM | > 43.5 µM | 15.6 nM and 5.93 nM | > 43.5 µM | 2.71 nM and 7.43 nM | 0.00873 µM and 0.0148 µM |
| C[N+]1=C(c2cccnc2/C=N/O)OCC1(C)C |  | > 100 µM |  | > 100 µM |  | > 100 µM |  | > 100 µM |  | > 100 µM |  | > 100 µM |  | > 100 µM |  | > 100 µM |  | > 100 µM |  | > 100 µM |
